Assays:
Experiment in all cases: Inhibition Assay
Thymidylate synthase [1] = target: T1, Thymidylate synthase (Lacticaseibacillus casei, UniProt P00469)
T1 sequence (P00469 whole entry): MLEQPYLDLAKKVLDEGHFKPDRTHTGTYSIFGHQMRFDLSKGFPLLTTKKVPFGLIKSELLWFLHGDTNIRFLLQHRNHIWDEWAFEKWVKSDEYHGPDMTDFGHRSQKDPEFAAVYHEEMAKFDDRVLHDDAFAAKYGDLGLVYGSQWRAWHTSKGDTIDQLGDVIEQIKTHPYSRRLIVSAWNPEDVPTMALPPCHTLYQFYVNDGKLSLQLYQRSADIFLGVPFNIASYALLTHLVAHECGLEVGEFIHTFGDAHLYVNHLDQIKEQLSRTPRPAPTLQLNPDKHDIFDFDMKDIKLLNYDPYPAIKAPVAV
Excerpt: (§1) Affinity assay of specificities of thymidylate synthase (TS)inhibitors

Thymidylate synthase [2] = target: Thymidylate synthase (Escherichia coli (strain K12), UniProt P0A884)
Excerpt: as §1

Thymidylate synthase [3] = target: Thymidylate synthase (Homo sapiens, UniProt P04818)
Excerpt: as §1

Sequence of Thymidylate synthase (Escherichia coli (strain K12), UniProt P0A884) (P0A884 whole entry): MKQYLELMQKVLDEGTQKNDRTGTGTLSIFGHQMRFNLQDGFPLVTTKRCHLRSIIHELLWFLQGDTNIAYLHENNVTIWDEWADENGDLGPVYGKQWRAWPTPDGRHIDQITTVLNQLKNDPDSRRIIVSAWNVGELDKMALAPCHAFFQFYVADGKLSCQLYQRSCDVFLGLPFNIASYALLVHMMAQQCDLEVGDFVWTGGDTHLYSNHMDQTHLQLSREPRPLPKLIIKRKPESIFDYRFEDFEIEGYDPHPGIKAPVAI
Sequence of Thymidylate synthase (Homo sapiens, UniProt P04818) (P04818 whole entry): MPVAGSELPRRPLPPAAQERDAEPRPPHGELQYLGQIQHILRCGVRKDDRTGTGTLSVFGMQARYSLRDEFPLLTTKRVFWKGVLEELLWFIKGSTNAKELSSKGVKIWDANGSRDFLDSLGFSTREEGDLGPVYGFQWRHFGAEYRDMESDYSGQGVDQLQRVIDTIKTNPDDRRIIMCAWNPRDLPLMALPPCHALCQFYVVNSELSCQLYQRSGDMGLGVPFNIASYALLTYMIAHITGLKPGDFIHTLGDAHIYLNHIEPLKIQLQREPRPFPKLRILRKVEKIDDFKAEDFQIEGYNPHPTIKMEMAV

Compound	IC50 (Thymidylate synthase [1])	IC50 (Thymidylate synthase [2])	IC50 (Thymidylate synthase [3])
CCCCN(CCCC)c1cccc2c(S(=O)(=O)Oc3ccc(CC(N)C(=O)O)cc3)cccc12 (centres undefined)	53 µM	–	–
NC(Cc1ccc(OC(=O)c2ccc3ccccc3c2)cc1)C(=O)O (centres undefined) [2-naphthylcarbonyl]	70 µM	–	–
NC(Cc1ccc(OS(=O)(=O)c2ccc3ccccc3c2)cc1)C(=O)O (centres undefined) [2-naphthylsulfonyl]	4.7 µM	–	–
CN(C)c1ccc(/N=N\c2ccc(S(=O)(=O)Oc3ccc(CC(N)C(=O)O)cc3)cc2)cc1 (centres undefined) [4'-(dimethylamino)azobenzene-4-sulfonyl]	> 100 µM	–	–
CN(C)c1cccc2c(S(=O)(=O)NN)cccc12 [5-(dimethylamino)naphthalene-1-sulfonohydrazide]	458 µM	1110 µM	36 µM
CN(C)c1cccc2c(S(=O)(=O)Oc3ccc(CC(N)C(=O)O)cc3)cccc12 [Dansyl derivatives 1A, (S) isomer]	–	1170 µM	771 µM
